Source: PubChem BioAssay AID1918936 (Molecular Pharmacology Branch, DTP, NCI, 2023)
Several values for one entry are separate records, joined by “and”; a condition that tells them apart may be missing. Equal values may be shown once. Values belong to the molecule of their own block, whether it stands above or below them.

Test system: 349418-098-R-PDC complex spheroid viability
Test: Anticancer human tumor 349418-098-R-PDC patient-derived lung adenocarcinoma cell line growth inhibition
Conditions: for viability, T/C: stronger effect = lower value
Excerpt: Multicellular complex tumor spheroid response to LSD1 Inhibitor Iadademstat in combination with a variety of drugs and investigational agents in selected tumor cell lines
The current study was undertaken to assess response to LSD1 inhibitors in combination with standard-of-care drugs and investigational agents in solid tumor complex spheroid models as well as in the K-562 leukemia. Complex spheroids include a stromal component modeled by human endothelial cells (HUVEC) and fibroblasts modeled by human mesenchymal stem cells (MSCs). The concentration ranges selected for each drug and investigational agent were based upon clinically achievable concentrations if the clinical Cmax of the agent was known.
Compounds. The drugs and investigational agents used in this study are listed on Table 1. All of the agents used, including staurosporine (NSC755774) and gemcitabine (NSC613327), were obtained from the Developmental Therapeutics Program, NCI. FDA-approved anticancer drugs are available from the NCI at http://dtp.nci.nih.gov/branches/dscb/oncology_drugset_explanation.html. Drugs and investigational agents were >95% pure by proton nuclear magnetic resonance (NMR) and liquid chromatography/mass spectrometry (LC/MS). Stock solutions were prepared at 400x in DMSO, stored at -70 degrees C, and diluted in fresh medium prior to their use. The final concentration of DMSO in cell culture wells never exceeded 0.25% (v/v). The FDA-approved anticancer drug set is available from the Developmental Therapeutics Program at https://dtp.cancer.gov/organization/dscb/obtaining/available_plates.htm. All drugs and investigational agents were tested over a range starting from a high concentration at or near the clinical Cmax and decreasing in half-log increments. If the clinical Cmax for an agent had not been determined, the highest concentration tested was 10 microM.
Cell Lines. The patient-derived cancer cell (PDC) lines: 292921-168-R-J2-PDC, K24384-001-R-PDC, and 521955-158-R2-J5-PDC pancreatic carcinomas, 556581-035-R-J1 ovarian carcinoma, 324938-238-R-J1-PDC, 855422-203-R-J1-PDC and 883617-216-R-J1-PDC urothelial bladder carcinomas, 743489-274-T-PDC renal cell carcinoma, 138582-R-J1 Merkel cell tumor, K60290-347-R-J1 and K57222-313-R-J1-PDC glioblastomas, 653999-131-R-J2-PDC, LG0703-F948-PDC, and 349418-098-R-PDC non-small cell lung carcinomas, 885512-296-R-J2-PDC, 171881-019-R-J1-PDC breast carcinomas and 186277-243-T-J2-PDC and 233499-124-R-J2-PDC colon carcinomas were obtained from the NCI Patient-Derived Models Repository (PDMR, https://pdmr.cancer.gov). The established cell lines NCI/ADR-RES (RRID:CVCL_14520 and OVCAR-5 (RRID:CVCL_1628) ovarian carcinomas, 786-O (RRID:CVCL_1051) and A498 (RRID:CVCL_A498) renal cell carcinoma, NCI-H211 (ATCC, cat. CRL-5824; RRID:CVCL_1529), NCI-H196 (ATCC, cat. CRL-5823, RRID:CVCL_1509), SW 1271 (ATCC, cat. CRL-2177, RRID:CVCL_1716) and NCI-H1876 (ATCC, cat. CRL-5902, RRID:CVCL_1503) small cell lung carcinomas, MDA-MB-231 (RRID:CVCL_0062) and MDA-MB-468 (RRID:CVCL_0419)breast carcinomas (10-12). Pooled donor human umbilical vein endothelial cells (HUVEC, Lonza, cat. CC-2519) and human mesenchymal stem cells (hMSC, Lonza, cat. PT-2501) were purchased from Lonza (Walkersville, MD).
Cell Culture. All cells were maintained in an incubator at 37 degrees C and 5% CO2 with 95% humidity. The PDC lines were cultured according to standard operating procedures established by the NCI PDMR (https://pdmr.cancer.gov). Briefly all PDCs were thawed and cultured in Matrigel-coated flasks prepared with a working solution of 1X Ham's F-12 nutrient mix, without supplementation (Invitrogen, Waltham, MA, cat. 11765054), 100 U/mL penicillin-streptomycin (Invitrogen, cat. 15140122), and 2.5% Matrigel (Corning Inc., Corning, NY, cat. 354248) for the first three passages. […]

[1] = curve of first compound, second compound 0.1 µM
[2] = curve of first compound, second compound 0.316 µM
[3] = curve of first compound, second compound 1 µM
[4] = curve of first compound, second compound 3.16 µM
[5] = curve of first compound, second compound 10 µM
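Also: spheroids exposed to agents for seven days before readout.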
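For viability, T/C in this document: 100% = DMSO vehicle control wells.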

IC50 (curve of compound): 384 nM and 740 nM
SMILES: COc1ccc([C@@H](O)c2cc(-c3ncnc4cc(N5CCOCC5)ccc34)c(F)cc2Cl)nn1
viability, T/C (compound 0.0316 µM): 91.6% and 95.8%
viability, T/C (compound 0.1 µM): 79.4% and 83.2%
viability, T/C (compound 0.316 µM): 53.7% and 74.8%
viability, T/C (compound 1 µM): 29.1% and 41.5%
viability, T/C (compound 3.16 µM): 9.45% and 15%
viability, T/C (compound 10 µM): 6.34% and 4.43%

IC50 (curve of compound): 70.6 nM and 51.6 nM
SMILES: NS(=O)(=O)OCC1CC(n2ccc3c(NC4CCc5ccccc54)ncnc32)CC1O (stereo not given)
viability, T/C (compound 0.00949 µM): 97.7% and 104%
viability, T/C (compound 0.03 µM): 98% and 68.5%
viability, T/C (compound 0.0949 µM): 33.6% and 29.1%
viability, T/C (compound 0.3 µM): 18.3% and 11%
viability, T/C (compound 0.949 µM): 7.34% and 5.1%
viability, T/C (compound 3 µM): 4.71% and 4.35%

SMILES: Cn1ncnc1C1c2n[nH]c(=O)c3cc(F)cc(c23)NC1c1ccc(F)cc1 (stereo not given) + NC1CCC(NC2CC2c2ccccc2)CC1
IC50 [1]: > 100 nM
IC50 [2]: > 100 nM
IC50 [3]: > 100 nM
IC50 [4]: > 100 nM
IC50 [5]: > 100 nM
viability, T/C (second compound 0.1 µM, first compound 0.000316 µM): 101%
viability, T/C (second compound 0.1 µM, first compound 0.001 µM): 96%
viability, T/C (second compound 0.1 µM, first compound 0.00316 µM): 94.8%
viability, T/C (second compound 0.1 µM, first compound 0.01 µM): 95.3%
viability, T/C (second compound 0.1 µM, first compound 0.0316 µM): 106%
viability, T/C (second compound 0.1 µM, first compound 0.1 µM): 92.5%
viability, T/C (second compound 0.316 µM, first compound 0.000316 µM): 108%
viability, T/C (second compound 0.316 µM, first compound 0.001 µM): 110%
viability, T/C (second compound 0.316 µM, first compound 0.00316 µM): 116%
viability, T/C (second compound 0.316 µM, first compound 0.01 µM): 92.2%
viability, T/C (second compound 0.316 µM, first compound 0.0316 µM): 97.6%
viability, T/C (second compound 0.316 µM, first compound 0.1 µM): 99.5%
viability, T/C (second compound 1 µM, first compound 0.000316 µM): 115%
viability, T/C (second compound 1 µM, first compound 0.001 µM): 112%
viability, T/C (second compound 1 µM, first compound 0.00316 µM): 96.8%
viability, T/C (second compound 1 µM, first compound 0.01 µM): 112%
viability, T/C (second compound 1 µM, first compound 0.0316 µM): 111%
viability, T/C (second compound 1 µM, first compound 0.1 µM): 87%
viability, T/C (second compound 3.16 µM, first compound 0.000316 µM): 107%
viability, T/C (second compound 3.16 µM, first compound 0.001 µM): 101%
viability, T/C (second compound 3.16 µM, first compound 0.00316 µM): 99.4%
viability, T/C (second compound 3.16 µM, first compound 0.01 µM): 98.9%
viability, T/C (second compound 3.16 µM, first compound 0.0316 µM): 89.7%
viability, T/C (second compound 3.16 µM, first compound 0.1 µM): 85.9%
viability, T/C (second compound 10 µM, first compound 0.000316 µM): 94.5%
viability, T/C (second compound 10 µM, first compound 0.001 µM): 91.2%
viability, T/C (second compound 10 µM, first compound 0.00316 µM): 94.6%
viability, T/C (second compound 10 µM, first compound 0.01 µM): 86.8%
viability, T/C (second compound 10 µM, first compound 0.0316 µM): 83.7%
viability, T/C (second compound 10 µM, first compound 0.1 µM): 87.3%

IC50 (curve of compound): 118 nM and 52.7 nM
SMILES: O=C(C=Cc1cccc(S(=O)(=O)Nc2ccccc2)c1)NO
viability, T/C (compound 0.00949 µM): 81.2% and 75%
viability, T/C (compound 0.03 µM): 71.6% and 70.5%
viability, T/C (compound 0.0949 µM): 58.6% and 19.1%
viability, T/C (compound 0.3 µM): 17.8% and 2.96%
viability, T/C (compound 0.949 µM): 3.74% and 0.75%

SMILES: CCN(c1cc(-c2ccc(CN3CCOCC3)cc2)cc(C(=O)NCc2c(C)cc(C)[nH]c2=O)c1C)C1CCOCC1 + NC1CCC(NC2CC2c2ccccc2)CC1
IC50 [1]: > 3000 nM
IC50 [2]: > 3000 nM
IC50 [3]: > 3000 nM
IC50 [4]: > 3000 nM
IC50 [5]: 640 nM
viability, T/C (second compound 0.1 µM, first compound 0.00949 µM): 107%
viability, T/C (second compound 0.1 µM, first compound 0.03 µM): 93.5%
viability, T/C (second compound 0.1 µM, first compound 0.0949 µM): 82.9%
viability, T/C (second compound 0.1 µM, first compound 0.3 µM): 70.5%
viability, T/C (second compound 0.1 µM, first compound 0.949 µM): 59.3%
viability, T/C (second compound 0.1 µM, first compound 3 µM): 60%
viability, T/C (second compound 0.316 µM, first compound 0.00949 µM): 99.1%
viability, T/C (second compound 0.316 µM, first compound 0.03 µM): 105%
viability, T/C (second compound 0.316 µM, first compound 0.0949 µM): 90.1%
viability, T/C (second compound 0.316 µM, first compound 0.3 µM): 77.5%
viability, T/C (second compound 0.316 µM, first compound 0.949 µM): 69.3%
viability, T/C (second compound 0.316 µM, first compound 3 µM): 62.2%
viability, T/C (second compound 1 µM, first compound 0.00949 µM): 106%
viability, T/C (second compound 1 µM, first compound 0.03 µM): 88.7%
viability, T/C (second compound 1 µM, first compound 0.0949 µM): 98%
viability, T/C (second compound 1 µM, first compound 0.3 µM): 75.6%
viability, T/C (second compound 1 µM, first compound 0.949 µM): 75.3%
viability, T/C (second compound 1 µM, first compound 3 µM): 57%
viability, T/C (second compound 3.16 µM, first compound 0.00949 µM): 106%
viability, T/C (second compound 3.16 µM, first compound 0.03 µM): 87.6%
viability, T/C (second compound 3.16 µM, first compound 0.0949 µM): 81%
viability, T/C (second compound 3.16 µM, first compound 0.3 µM): 68.3%
viability, T/C (second compound 3.16 µM, first compound 0.949 µM): 55.6%
viability, T/C (second compound 3.16 µM, first compound 3 µM): 59.5%
viability, T/C (second compound 10 µM, first compound 0.00949 µM): 79%
viability, T/C (second compound 10 µM, first compound 0.03 µM): 91.2%
viability, T/C (second compound 10 µM, first compound 0.0949 µM): 64.9%
viability, T/C (second compound 10 µM, first compound 0.3 µM): 59.7%
viability, T/C (second compound 10 µM, first compound 0.949 µM): 47.4%
viability, T/C (second compound 10 µM, first compound 3 µM): 34.5%
